Laboratory results: patent US20190090524A1, “NOVEL COMPOSITIONS FOR FLAVOR ENHANCEMENT” (INTERNATIONAL FLAVORS & FRAGRANCES INC., priority 2016, published 2019)

Tests used:
Type in all cases: in vivo
[1] = Alcohol sensation of alcohol solutions with 25 ppb β-sitosterol, panel comparison with higher ABV solutions
Description: (C) A β-sitosterol solution (prepared in Example I) was added to alcohol solutions at 8.75% ABV, 17.5% ABV and 21.75% ABV (prepared in Example I), respectively, to yield a final concentration of 25 ppb. The alcohol sensation of the obtained samples was evaluated and compared by a panel with alcohol solutions at higher levels of ABV, respectively.

[2] = Carbonation effect intensity in carbonated water (7.2 g/L CO2), panel, scale 0 to 10; details: mean; 2.5 ppt in carbonated water 7.2 g/L CO2; scale 0 to 10 (0=none, 4=medium, 7=high, 10=extremely high); p<0.01 vs carbonated water alone
Description: (A) A β-sitosterol solution (prepared in Example I) was added to the carbonated water (7.2 g/L CO2) (prepared in Example I) to yield a final concentration of 2.5 ppt.
The carbonation effect of the obtained sample was evaluated and compared by a panel with the carbonated water using an intensity scale of 0 to 10, where 0=none, 4=medium, 7=high and 10=extremely high. The intensity of carbonation effect was rated. Mean (“Carbonation Intensity”) and standard error of the mean (“SE”, +) were obtained.

[3] = Carbonation sensation in carbonated water of 6.0, 7.2 and 8.0 g/L CO2 with 2.5 ppt β-sitosterol; details: 2.5 ppt in carbonated water of 6.0, 7.2 and 8.0 g/L CO2, all samples
Description: (C) A β-sitosterol solution (prepared in Example I) was added to carbonated water of 6.0, 7.2 and 8.0 g/L CO2 (prepared in Example I), respectively, to yield a final concentration of 2.5 ppt. The carbonation sensation of the obtained samples was evaluated.

[4] = Alcohol sensation intensity in 6% ABV solution, panel, scale 0 to 10; details: mean; 100 ppb in solution of 6% ABV; scale 0 to 10 (0=none, 4=medium, 7=high, 10=extremely high); p<0.01 vs 6% ABV alone
Description: (A) A β-sitosterol solution (prepared in Example I) was added to the alcohol solution at 6% ABV (prepared in Example I) to yield a final concentration of 100 ppb.
The alcohol sensation of the obtained sample was evaluated and compared by a panel with the alcohol solution at 6% ABV using an intensity scale of 0 to 10, where 0=none, 4=medium, 7=high and 10=extremely high. The intensity of alcohol sensation was rated. Mean (“Alcohol Intensity”) and standard error of the mean (“SE”, +) were obtained.

[5] = Flavor of β-sitosterol solutions in water; details: 2.5 to 600 ppb
[6] = Carbonation sensation in carbonated water (7.2 g/L CO2) with 0.1 to 50 ppt β-sitosterol
Description: (B) A series of β-sitosterol solutions (prepared in Example I) were added to the carbonated water (7.2 g/L CO2) (prepared in Example I) to yield final concentrations ranging from 0.1 to 50 ppt. The carbonation sensation of the obtained samples containing different amounts of […] was evaluated.

[7] = Alcohol sensation in 17.5% ABV solution with 3 to 500 ppb β-sitosterol
Description: (B) A series of β-sitosterol solutions (prepared in Example I) were added to the alcohol solution at 17.5% ABV (prepared in Example I) to yield final concentrations of β-sitosterol ranging from 3 to 500 ppb. The alcohol sensation of the obtained samples containing different amounts of β-sitosterol was evaluated.

[8] = Alcohol impression in alcohol-free beer, panel comparison with alcohol solutions; details: 25 ppb in Brahma 0.0% alcohol free beer
Description: 1. […] 2. Alcohol solutions containing varying amounts of ethanol (Alcohol by Volume, “ABV”) were prepared as follows: • Alcohol solutions at 1% ABV, 2% ABV, 2.5% ABV, 3% ABV and 5% ABV were prepared by adding varying amounts of ethanol in Brahma 0.0% alcohol-free beer (Anheuser-Busch InBev); • Alcohol solution at 6% ABV was prepared by adding ethanol in water; and • Alcohol solutions with ABV ranging from 8.75% to 50% were prepared by diluting CAPTAIN MORGAN® Original Spiced Rum (35% ABV) (Diageo North America Inc.) in varying amounts of water. 3. Carbonated water containing carbon dioxide at 6.0, 7.2 and 8.0 g/L, respectively, were prepared.
A β-sitosterol solution (prepared in Example I) was added in Brahma 0.0% alcohol free beer to yield a final concentration of 25 ppb. The alcohol impression of the obtained sample was evaluated and compared by a panel with alcohol solutions at 1% ABV, 2% ABV, 2.5% ABV, 3% ABV and 5% ABV (prepared in Example I). 3-Sitosterol (25 ppb) provided an equal level of alcohol impression as the alcohol solution at 2.5% ABV.

CC[C@H](CC[C@@H](C)[C@H]1CC[C@H]2[C@@H]3CC=C4C[C@@H](O)CC[C@]4(C)[C@H]3CC[C@]12C)C(C)C [β-sitosterol, (3S,8S,9S,10R,13R,14S,17R)-17-((1R,4R)-4-ethyl-1,5-dimethyl-hexyl)-10,13-dimethyl-2,3,4,7,8,9,10,11,12,13,14,15,16,17-tetradecahydro-1H-cyclopenta[a]phenanthren-3-ol]
alcohol sensation at the level of an alcohol solution ([1]; 25 ppb in alcohol solution at 8.75% ABV): 10 % ABV
alcohol sensation at the level of an alcohol solution ([1]; 25 ppb in alcohol solution at 17.5% ABV): 22.5 % ABV
alcohol sensation at the level of an alcohol solution ([1]; 25 ppb in alcohol solution at 21.75% ABV): 35 % ABV
Carbonation Intensity [2]: 7.19
carbonation sensation [3]: provided enhancement of carbonation sensation
Alcohol Intensity [4]: 7.21
flavor of β-sitosterol itself [5]: no noticeable flavor
carbonation perception ([6]; 0.1 ppt in carbonated water 7.2 g/L CO2): slight increase in carbonation perception
carbonation perception ([6]; 2.5 ppt in carbonated water 7.2 g/L CO2): clear increase in carbonation perception
enhancement of carbonation effect ([6]; 5 ppt or higher in carbonated water 7.2 g/L CO2): reached a stable plateau
alcohol sensation ([7]; 3 ppb in alcohol solution at 17.5% ABV): slight but noticeable increase in alcohol sensation
enhancement of alcohol sensation ([7]; 200 ppb in alcohol solution at 17.5% ABV): reached a stable plateau
alcohol sensation ([7]; at a higher concentration than 3 ppb in alcohol solution at 17.5% ABV): clear increase of alcohol intensity
alcohol impression, equal level as alcohol solution [8]: 2.5 % ABV
